Measurements as given in patent US11840686B2, “Modulation of prekallikrein (PKK) expression” (Ionis Pharmaceuticals, Inc., priority 2013, dated 2023).
Strand notation (5' to 3'): a small letter for the sugar, then the base; units joined by * are phosphorothioate-linked, units joined directly phosphodiester-linked; [ ] holds rarer units or linkages, { } end groups; capitals alone tell only the bases. e = 2'-O-(2-methoxyethyl) (MOE); [5mC] = 5-methylcytosine; d = 2'-deoxy (DNA)

Assays:
human PKK mRNA [1] = test: Dose-dependent antisense inhibition of human PKK in HepaRG cells, 0.19-5.00 uM (Example 5); type: cell-based
Summary of the method: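 PKK mRNA knockdown was measured by real-time PCR (primer probe set RTS3454) about 16 h after electroporating 20,000 HepaRG cells per well with oligonucleotide at four doses from 0.19 to 5.00 μM. Levels were adjusted to RIBOGREEN-measured total RNA, and IC50 values were calculated.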

human PKK mRNA [2] = test: Antisense inhibition of human PKK mRNA in HepaRG cells, 5,000 nM (Example 2); type: cell-based
Summary of the method: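 qRT-PCR (RTS3454) read-out, RIBOGREEN-normalized; % inhibition vs untreated cells. HepaRG, 20,000 cells/well, electroporation, 5,000 nM ASO, ~24 h.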

[3] = Table 34, HepaRG, electroporation, ~16 h
[4] = Table 34, PKK mRNA, HepaRG, electroporation, ~16 h
[5] = Table 9 experiment, HepaRG cells, 20,000 cells per well, electroporation with 5,000 nM antisense oligonucleotide, approx. 24 hours, PKK mRNA by RT-PCR (RTS3454), relative to untreated control cells
[6] = Table 10 experiment, HepaRG cells, 20,000 cells per well, electroporation with 5,000 nM antisense oligonucleotide, approx. 24 hours, PKK mRNA by RT-PCR (RTS3454), relative to untreated control cells
[7] = HepaRG cells, electroporation, approximately 16 hours, Table 37
[8] = HepaRG cells, electroporation, approximately 16 hours, Table 40
[9] = 4 point dose response, HepaRG cells, Table 40
[10] = HepaRG cells, electroporation, 5,000 nM antisense oligonucleotide, approx. 24 hours, primer probe set RTS3454, relative to untreated control cells, Table 11
[11] = HepaRG cells, electroporation, approximately 16 hours, Table 38

| Substance | percent inhibition of PKK at 0.19 μM (human PKK mRNA [1]; [3]) | percent inhibition of PKK at 0.56 μM (human PKK mRNA [1]; [3]) | percent inhibition of PKK at 1.67 μM (human PKK mRNA [1]; [3]) | percent inhibition of PKK at 5.00 μM (human PKK mRNA [1]; [3]) | IC50 (human PKK mRNA [1]; [4]) | % inhibition (human PKK mRNA [2]; [5]) | % inhibition (human PKK mRNA [2]; [6]) | percent inhibition of PKK at 0.19 μM (human PKK mRNA [1]; [8]) | percent inhibition of PKK at 0.56 μM (human PKK mRNA [1]; [8]) | percent inhibition of PKK at 1.67 μM (human PKK mRNA [1]; [8]) | percent inhibition of PKK at 5.00 μM (human PKK mRNA [1]; [8]) | IC50 (human PKK mRNA [1]; [9]) | % inhibition (human PKK mRNA [2]; [10]) | also measured |
| --- | --- | --- | --- | --- | --- | --- | --- | --- | --- | --- | --- | --- | --- | --- |
| 547464 (antisense eG*e[5mC]*eT*eT*eG*dT*dG*dT*d[5mC]*dA*d[5mC]*d[5mC]*dT*dT*dT*eG*eG*eA*eA*eG) [compound 547464] | 21% | 52% | 67% | 97% | 600 nM | 95% | 84% |  |  |  |  |  |  |  |
| 547483 (antisense eT*e[5mC]*e[5mC]*e[5mC]*e[5mC]*d[5mC]*dT*dT*d[5mC]*dT*dT*dT*dA*dT*dA*eG*e[5mC]*e[5mC]*eA*eG) [compound 547483] |  |  |  |  |  | 71% | 77% |  |  |  |  |  |  | percent inhibition of PKK at 0.19 μM (human PKK mRNA [1]; [7]): 0%; percent inhibition of PKK at 0.56 μM (human PKK mRNA [1]; [7]): 9%; percent inhibition of PKK at 1.67 μM (human PKK mRNA [1]; [7]): 49%; percent inhibition of PKK at 5.00 μM (human PKK mRNA [1]; [7]): 71%; IC50 (human PKK mRNA [1]; 4 point dose response, HepaRG cells, Table 37): 2100 nM |
| 547493 (antisense eT*e[5mC]*eT*eG*eA*dG*d[5mC]*dT*dT*dT*dT*d[5mC]*d[5mC]*dA*dT*e[5mC]*eA*e[5mC]*eT*eG) [compound 547493] |  |  |  |  |  |  |  | 0% | 26% | 64% | 77% | 1300 nM | 72% |  |
| 547514 (antisense eA*eG*eA*eT*eG*d[5mC]*d[5mC]*dA*d[5mC]*dT*d[5mC]*dT*d[5mC]*d[5mC]*dA*eT*eG*e[5mC]*eT*eT) [compound 547514] |  |  |  |  |  |  |  |  |  |  |  |  | 85% | percent inhibition of PKK at 0.19 μM (human PKK mRNA [1]; [11]): 18%; percent inhibition of PKK at 0.56 μM (human PKK mRNA [1]; [11]): 8%; percent inhibition of PKK at 1.67 μM (human PKK mRNA [1]; [11]): 51%; percent inhibition of PKK at 5.00 μM (human PKK mRNA [1]; [11]): 80%; IC50 (human PKK mRNA [1]; 4 point dose response, HepaRG cells, Table 38): 1900 nM |
| 547520 (antisense eT*e[5mC]*eA*eG*e[5mC]*d[5mC]*dA*dG*dA*d[5mC]*dA*dT*dT*dG*dT*e[5mC]*e[5mC]*eT*e[5mC]*eA) [compound 547520] |  |  |  |  |  |  |  | 0% | 25% | 66% | 64% | 1100 nM | 76% |  |
| 547564 (e[5mC]*e[5mC]*e[5mC]*eT*e[5mC]*dT*dG*dT*d[5mC]*dT*dT*dA*dG*dA*dT*eG*eT*e[5mC]*e[5mC]*eA; antisense) [compound 547564] | 51% | 48% | 82% | 90% | 200 nM |  |  |  |  |  |  |  |  | percent inhibition of PKK at 5.00 μM (human PKK mRNA [1]; HepaRG cells, electroporation, approximately 16 hours, Table 41): 97%; percent inhibition of PKK at 0.19 0μM (human PKK mRNA [1]; 0.19 0μM, HepaRG cells, electroporation, approximately 16 hours, Table 41): 46%; percent inhibition of PKK at 0.56 0μM (human PKK mRNA [1]; 0.56 0μM, HepaRG cells, electroporation, approximately 16 hours, Table 41): 66%; percent inhibition of PKK at 1.67 1μM (human PKK mRNA [1]; 1.67 1μM, HepaRG cells, electroporation, approximately 16 hours, Table 41): 90%; IC50 (human PKK mRNA [1]; 4 point dose response, HepaRG cells, Table 41): 200 nM; % inhibition (human PKK mRNA [2]; Table 13, human PKK mRNA in HepaRG cells, 5-10-5 gapmers): 94% |
